Experimental data taken from US9872875B2, “Component and method for treating viral disease” (Institut Pasteur of Shanghai, Chinese Academy of Sciences, priority 2012, dated 2018).

Experiments:
[1] = test system: EV71 clinical isolate (EV71 FY 573); assay: EV71 TCID50 (CPE, crystal violet) in RD cells; format: cell-based, Enterovirus 71
Protocol: EV71 (clinical isolate EV71 FY 573) in 10-fold serial dilutions was used to infect RD cells at different E02 concentrations. After 3-4 days of incubation, CPE (cytopathic effect) was observed under optical microscope and stained with crystal violet to calculate 50% tissue culture infective dose. Procedures are detailed as follows:
(1) Cell seeding: 24 h prior to infection, RD cells were seeded in 96-well cell culture plates, 5×10^4 cells per well.
(2) Infection: • a. Virus pre-incubated with drug: virus stock solution was in 10-fold serial dilution with DMEM and dispensed to 96-well plates at 100 μl per well, and 11 μl of E02 dissolved in DMEM at corresponding concentration was added, and incubated at 37° C. for 1 h; • b. Cells pre-incubated with drug: cell culture medium was removed from 96-well plates, each well was added 100 μl DMEM, then added 11 μl of E02 solution at corresponding concentration, and incubated at 37° C. for 1 h; • c. After 1 h incubation, drug was discarded from cell culture plates, 111 μl of virus pre-incubated with drug was transferred to cell culture plates, and incubated at 37° C. for 1 h; • d. […]
(3) After cultured for 3-4 days, CPE was observed under optical microscope, and stained with crystal violet, TCID50 was calculated using Reed-Muench method.

[2] = test system: EV71 clinical isolate SH-TS; assay: EV71 SH-TS PFU in RD cells; format: cell-based, Enterovirus 71; details: Enterovirus A, 168 h, 5~7 days, read-out: EC50 to reduce EV71 SH-TS PFU in RD cells
Protocol: RD cells cultured in 12-well plates were infected with EV71 SH-TS or SH-RS at different E02 concentrations. After cultured for 5˜7 days, cells were stained and plaque-forming units were calculated. Same procedure is as detailed in “3. E02 reduces EV71 plaque forming units in RD cells” of Example 1.

What does the source list for `Cc1ccc(C(=O)Nc2ccc(S(=O)(=O)O)c3cc(S(=O)(=O)O)cc(S(=O)(=O)O)c23)cc1NC(=O)c1cccc(NC(=O)Nc2cccc(C(=O)Nc3cc(C(=O)Nc4ccc(S(=O)(=O)O)c5cc(S(=O)(=O)O)cc(S(=O)(=O)O)c45)ccc3C)c2)c1` [E02, Suramin Sodium]?
inhibition of EV71 clinical isolate infection of RD cells ([1]; 10 μM of E02): completely inhibit; EC50 ([1]; Enterovirus A, RD, EV71 FY 573, 3-4 days, read-out: EC50 to reduce EV71 TCID50 in RD cells): 4.7 µM; EC50 [2]: 2.24 µM
